Patent US8952024B2, “Herbicidal pyrimidone derivatives” (E I du Pont de Nemours and Company, priority 2009, dated 2015)

What was measured:
Assay in all cases: Test D pre-/postemergence plant response
Assay type in all cases: in vivo
[1] = tested on: mallow (common mallow, Malva sylvestris)
How it was run: (§1)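 Both preemergence and postemergence treatments were made at the same time, with the compound in a non-phytotoxic, surfactant-containing solvent mixture. Plants grew in a greenhouse for 14–21 days before visual evaluation, scored from 0 (no effect) to 100 (complete control).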

[2] = tested on: dallisgrass (Paspalum dilatatum)
How it was run: as §1

[3] = tested on: ragweed (common ragweed, Ambrosia elatior)
How it was run: as §1

[4] = tested on: johnsongrass (Sorghum halepense)
How it was run: as §1

[5] = tested on: itchgrass (Rottboellia cochinchinensis)
How it was run: as §1

kochia (Kochia scoparia) = tested on: kochia (Kochia scoparia)
How it was run: as §1

[6] = tested on: green foxtail (Setaria viridis)
How it was run: as §1

[7] = tested on: dayflower (Virginia (VA) dayflower, Commelina virginica)
How it was run: as §1

[8] = tested on: prickly sida (Sida spinosa)
How it was run: as §1

[9] = tested on: bluegrass (annual bluegrass, Poa annua)
How it was run: as §1

[10] = tested on: spanishneedles (Bidens bipinnata)
How it was run: as §1

[11] = tested on: goosegrass (Eleusine indica)
How it was run: as §1

[12] = tested on: sandbur (southern sandbur, Cenchrus echinatus)
How it was run: as §1

[13] = tested on: barnyardgrass (Echinochloa crus-galli)
How it was run: as §1

[14] = Postemergence, 16 g ai/ha, scale 0 to 100
[15] = Postemergence, 31 g ai/ha, scale 0 to 100
[16] = Postemergence, 125 g ai/ha, scale 0 to 100 (0 no effect, 100 complete control)
[17] = Postemergence, 62 g ai/ha, scale 0 to 100 (0 no effect, 100 complete control)
[18] = Preemergence, 62 g ai/ha, scale 0 to 100
[19] = Preemergence, 125 g ai/ha, scale 0 to 100
[20] = Preemergence, 16 g ai/ha, scale 0 to 100, 0 no effect, 100 complete control
[21] = Preemergence, 31 g ai/ha, scale 0 to 100 (0 no effect, 100 complete control)
[22] = Postemergence, 31 g ai/ha, scale 0 to 100 (0 no effect, 100 complete control)

O=C1CCCC(O)=C1C(=O)c1cnc(C2CC2)n(-c2ccccc2)c1=O [Compound 87]
Plant response rating, Mallow [1, 14]: 40 | Plant response rating, Mallow [1, 15]: 60 | Plant response rating, Mallow [1, 16]: 70 | Plant response rating, Mallow [1, 17]: 70 | Plant response rating, Mallow [1, 18]: 80 | Plant response rating, Mallow [1, 19]: 100 | Plant response rating, Dallisgrass [2, 14]: 25 | Plant response rating, Dallisgrass [2, 15]: 25 | Plant response rating, Dallisgrass [2, 16]: 75 | Plant response rating, Dallisgrass [2, 17]: 50 | Plant response rating, Dallisgrass [2, 20]: 50 | Plant response rating, Dallisgrass [2, 21]: 50 | Plant response rating, Dallisgrass [2, 18]: 80 | Plant response rating, Dallisgrass [2, 19]: 98 | Plant response rating, Ragweed [3, 14]: 70 | Plant response rating, Ragweed [3, 15]: 80 | Plant response rating, Ragweed [3, 16]: 98 | Plant response rating, Ragweed [3, 17]: 95 | Plant response rating, Ragweed [3, 20]: 30 | Plant response rating, Ragweed [3, 21]: 98 | Plant response rating, Ragweed [3, 19]: 98 | Plant response rating, Johnsongrass [4, 14]: 20 | Plant response rating, Johnsongrass [4, 15]: 30 | Plant response rating, Johnsongrass [4, 16]: 60 | Plant response rating, Johnsongrass [4, 17]: 40 | Plant response rating, Johnsongrass [4, 20]: 0 | Plant response rating, Johnsongrass [4, 21]: 5 | Plant response rating, Johnsongrass [4, 18]: 20 | Plant response rating, Johnsongrass [4, 19]: 70 | Plant response rating, Itchgrass [5, 14]: 0 | Plant response rating, Itchgrass [5, 15]: 0 | Plant response rating, Itchgrass [5, 16]: 30 | Plant response rating, Itchgrass [5, 17]: 30 | Plant response rating, Itchgrass [5, 20]: 0 | Plant response rating, Itchgrass [5, 21]: 20 | Plant response rating, Itchgrass [5, 18]: 20 | Plant response rating, Itchgrass [5, 19]: 20 | Plant response rating, Kochia (kochia (Kochia scoparia); [14]): 25 | Plant response rating, Kochia (kochia (Kochia scoparia); [15]): 35 | Plant response rating, Kochia (kochia (Kochia scoparia); [16]): 60 | Plant response rating, Kochia (kochia (Kochia scoparia); [17]): 35 | Plant response rating, Kochia (kochia (Kochia scoparia); [20]): 65 | Plant response rating, Kochia (kochia (Kochia scoparia); [21]): 98 | Plant response rating, Kochia (kochia (Kochia scoparia); [18]): 100 | Plant response rating, Kochia (kochia (Kochia scoparia); [19]): 100 | Plant response rating, Foxtail, Green [6, 14]: 5 | Plant response rating, Foxtail, Green [6, 15]: 30 | Plant response rating, Foxtail, Green [6, 16]: 60 | Plant response rating, Foxtail, Green [6, 17]: 35 | Plant response rating, Foxtail, Green [6, 20]: 0 | Plant response rating, Foxtail, Green [6, 21]: 0 | Plant response rating, Foxtail, Green [6, 18]: 0 | Plant response rating, Foxtail, Green [6, 19]: 10 | Plant response rating, Dayflower, VA [7, 14]: 10 | Plant response rating, Dayflower, VA [7, 15]: 35 | Plant response rating, Dayflower, VA [7, 16]: 70 | Plant response rating, Dayflower, VA [7, 17]: 60 | Plant response rating, Dayflower, VA [7, 20]: 0 | Plant response rating, Dayflower, VA [7, 21]: 0 | Plant response rating, Dayflower, VA [7, 18]: 65 | Plant response rating, Dayflower, VA [7, 19]: 65 | Plant response rating, Prickly Sida [8, 14]: 70 | Plant response rating, Prickly Sida [8, 15]: 80 | Plant response rating, Prickly Sida [8, 16]: 95 | Plant response rating, Prickly Sida [8, 17]: 80 | Plant response rating, Prickly Sida [8, 20]: 50 | Plant response rating, Prickly Sida [8, 21]: 60 | Plant response rating, Prickly Sida [8, 18]: 100 | Plant response rating, Prickly Sida [8, 19]: 100 | Plant response rating, Bluegrass [9, 14]: 0 | Plant response rating, Bluegrass [9, 22]: 0 | Plant response rating, Bluegrass [9, 16]: 0 | Plant response rating, Bluegrass [9, 17]: 0 | Plant response rating, Bluegrass [9, 20]: 20 | Plant response rating, Bluegrass [9, 21]: 20 | Plant response rating, Bluegrass [9, 18]: 25 | Plant response rating, Bluegrass [9, 19]: 35 | Plant response rating, Spanishneedles [10, 14]: 60 | Plant response rating, Spanishneedles [10, 15]: 60 | Plant response rating, Spanishneedles [10, 16]: 70 | Plant response rating, Spanishneedles [10, 17]: 60 | Plant response rating, Spanishneedles [10, 20]: 0 | Plant response rating, Spanishneedles [10, 21]: 65 | Plant response rating, Spanishneedles [10, 19]: 98 | Plant response rating, Goosegrass [11, 14]: 30 | Plant response rating, Goosegrass [11, 15]: 35 | Plant response rating, Goosegrass [11, 16]: 65 | Plant response rating, Goosegrass [11, 17]: 65 | Plant response rating, Goosegrass [11, 20]: 35 | Plant response rating, Goosegrass [11, 21]: 35 | Plant response rating, Goosegrass [11, 18]: 95 | Plant response rating, Goosegrass [11, 19]: 100 | Plant response rating, Sandbur [12, 14]: 5 | Plant response rating, Sandbur [12, 15]: 5 | Plant response rating, Sandbur [12, 16]: 35 | Plant response rating, Sandbur [12, 17]: 20 | Plant response rating, Sandbur [12, 20]: 0 | Plant response rating, Sandbur [12, 21]: 25 | Plant response rating, Sandbur [12, 19]: 95 | Plant response rating, Barnyardgrass [13, 14]: 35 | Plant response rating, Barnyardgrass [13, 22]: 50 | Plant response rating, Barnyardgrass [13, 16]: 70 | Plant response rating, Barnyardgrass [13, 17]: 60 | Plant response rating, Barnyardgrass [13, 20]: 0 | Plant response rating, Barnyardgrass [13, 21]: 5 | Plant response rating, Barnyardgrass [13, 18]: 50 | Plant response rating, Barnyardgrass [13, 19]: 95
